How the values were obtained:
HCT116 (colon) = experiment: In vitro cytotoxic activity assay (MTT), HCT116; type: cell-based; conditions: Homo sapiens, HCT-116; HCT116 (colon) cells, exposed for 96 hours; read-out: IC50, concentration of compound eliciting a 50% inhibition of cell proliferation
Procedure: (§1) Compounds 1-12 were screened for their in vitro cytotoxic activity utilizing a 3-(4,5-dimethyl-thiazol-2-yl)-2,5-diphenyltetrazolium bromide (MTT) assay against selected cancer human cell lines consisting of PC3 (prostate), HCT116 (colon), A375 (melanoma), H1299 (lung), MIAPaCa-2 (pancreas), HL60 (leukemia), MCF7 (breast), MDA-MB-231 (breast) (T. Mosmann, J. Immunol. Meth., 1983, 65, 55-63). The cells were cultured at 37° C. in RMPI1640 medium supplemented with 10% fetal bovine serum, 50 IU/mL penicillin, and 50 μg/mL streptomycin in a 5% CO2 incubator. All cells were sub-cultured 3 times/week by trypsinisation. Viable cells were seeded and allowed to adhere for 12 h before a test drug was added in 96-well plates at an initial density of 1.0×10^5 cells/mL. Tumour cell lines were separately exposed to various concentrations of the tested compounds followed by incubation at a temperature of 37° C. during 96 h inside a medium of fresh RMPI 1640. Cells were subsequently incubated at 37° C. using MTT at 0.5 mg/mL during 4 h. After removal of supernatant, formazan crystals were dissolved in isopropanol and the optical density was measured at 570 nm. CX-4945 was used as a positive control.

A375 (melanoma) = experiment: In vitro cytotoxic activity assay (MTT), A375; type: cell-based; conditions: Homo sapiens, A-375; A375 (melanoma) cells, exposed for 96 hours; read-out: IC50, concentration of compound eliciting a 50% inhibition of cell proliferation
Procedure: as §1

MCF7 (breast) = experiment: In vitro cytotoxic activity assay (MTT), MCF7; type: cell-based; conditions: Homo sapiens; MCF7 (breast) cells, exposed for 96 hours; read-out: IC50, concentration of compound eliciting a 50% inhibition of cell proliferation
Procedure: as §1

HL60 (leukemia) = experiment: In vitro cytotoxic activity assay (MTT), HL60; type: cell-based; conditions: Homo sapiens, HL-60; HL60 (leukemia) cells, exposed for 96 hours; read-out: IC50, concentration of compound eliciting a 50% inhibition of cell proliferation
Procedure: as §1

MIAPaCa-2 (pancreas) = experiment: In vitro cytotoxic activity assay (MTT), MIAPaCa-2; type: cell-based; conditions: Homo sapiens, MIA PaCa-2; MIAPaCa-2 (pancreas) cells, exposed for 96 hours; read-out: IC50, concentration of compound eliciting a 50% inhibition of cell proliferation
Procedure: as §1

recombinant human CK2 = target: T1, recombinant human CK2 (Homo sapiens, UniProt P68400); experiment: CK2 Kinase Assay (33P-ATP, substrate peptide RRRDDDSDDD); type: biochemical; conditions: final ATP concentration 15 μM, 10 min at 30° C., eight concentrations; read-out: protein kinase CK2 IC50
T1 construct: purchased Millipore
Procedure: CK2 Kinase Assay was conducted using the protocol as described in Pierre F. et al; J. Med. Chem. 2011, 54, 635-654. The tested compounds in aqueous solution were added at a volume of 10 μL to a reaction mixture comprising 10 μL of assay dilution buffer (ADB; 20 mM MOPS, pH 7.2, 25 mM β-glycerol phosphate, 5 mM EGTA, 1 mM sodium orthovanadate, and 1 mM dithiothreitol), 10 μL of substrate peptide (RRRDDDSDDD, dissolved in ADB at a concentration of 1 mM), 10 μL of recombinant human CK2 (RROP-holoenzyme, 25 ng dissolved in ADB; Millipore). Reactions were initiated by the addition of 10 μL of ATP solution (90% 75 mMMgCl2, 75 μM ATP (final ATP concentration:15 μM) dissolved in ADB; 10% [γ-33P] ATP (stock 1 mCi/100 μL; 3000 Ci/mmol (Perkin-Elmer) and maintained for 10 min at 30° C. The reactions were quenched with 100 μL of 0.75% phosphoric acid and then transferred to and filtered through a phosphor cellulose filter plate (Millipore). After washing each well five times with 0.75% phosphoric acid, the plate was dried under vacuum for 5 min and, following the addition of 15 μL of scintillation fluid to each well, the residual radioactivity was measured using a Wallac luminescence counter. The IC50 values were derived from eight concentrations of test inhibitors.

MDA-MB-231 (breast) = experiment: In vitro cytotoxic activity assay (MTT), MDA-MB-231; type: cell-based; conditions: Homo sapiens; MDA-MB-231 (breast) cells, exposed for 96 hours; read-out: IC50, concentration of compound eliciting a 50% inhibition of cell proliferation
Procedure: as §1

H1299 (lung) = experiment: In vitro cytotoxic activity assay (MTT), H1299; type: cell-based; conditions: Homo sapiens, NCI-H1299; H1299 (lung) cells, exposed for 96 hours; read-out: IC50, concentration of compound eliciting a 50% inhibition of cell proliferation
Procedure: as §1

PC3 (prostate) = experiment: In vitro cytotoxic activity assay (MTT), PC3; type: cell-based; conditions: Homo sapiens, Prostate cell; PC3 (prostate) cells, exposed for 96 hours; read-out: IC50, concentration of compound eliciting a 50% inhibition of cell proliferation
Procedure: as §1

T1 sequence (P68400 whole entry): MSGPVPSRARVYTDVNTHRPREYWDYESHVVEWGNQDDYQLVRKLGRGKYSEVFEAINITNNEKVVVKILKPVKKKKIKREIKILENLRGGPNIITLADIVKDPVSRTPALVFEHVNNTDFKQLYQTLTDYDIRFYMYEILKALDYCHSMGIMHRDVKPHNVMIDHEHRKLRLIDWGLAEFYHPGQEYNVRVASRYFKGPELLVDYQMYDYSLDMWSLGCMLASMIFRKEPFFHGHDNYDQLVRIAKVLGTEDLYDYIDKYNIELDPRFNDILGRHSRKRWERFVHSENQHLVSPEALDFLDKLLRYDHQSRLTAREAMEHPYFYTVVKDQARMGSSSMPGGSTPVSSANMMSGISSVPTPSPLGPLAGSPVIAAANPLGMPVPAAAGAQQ
T1 sequence (P67870 whole entry partner): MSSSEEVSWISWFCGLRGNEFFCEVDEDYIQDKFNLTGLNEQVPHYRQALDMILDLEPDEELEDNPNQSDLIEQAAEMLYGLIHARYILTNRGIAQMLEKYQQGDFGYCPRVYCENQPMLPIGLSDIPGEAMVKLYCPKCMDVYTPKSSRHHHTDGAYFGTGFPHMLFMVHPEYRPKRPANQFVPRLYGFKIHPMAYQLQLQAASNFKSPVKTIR

**Q.** What does the source list for O=C(O)c1ccc2c(c1)nc(Nc1cccc(Cl)c1)c1[nH]cc(C(=O)O)c12 [Compound 1, 4-((3-chlorophenyl)amino)-3H-pyrrolo[2,3-c]quinoline-1,7-dicarboxylic acid]?
**A.** IC50 (HCT116 (colon)): 1700 nM; IC50 (A375 (melanoma)): 2200 nM; IC50 (MCF7 (breast)): 6.2 µM; IC50 (HL60 (leukemia)): 3.1 µM; IC50 (MIAPaCa-2 (pancreas)): 1400 nM; IC50 (recombinant human CK2): 35 nM; IC50 (MDA-MB-231 (breast)): 4.6 µM; IC50 (H1299 (lung)): 1900 nM; IC50 (PC3 (prostate)): 1300 nM

Source: US11878978B1, “Pyrrolo[2,3-c]quinoline compounds as CK2 inhibitors” (KING FAISAL UNIVERSITY, priority 2023, dated 2024)
